Legend:
[1] = tested on: U2OS cells expressing GFP-tagged Sec61β; experiment: ER morphology by fluorescence microscopy in U2OS cells expressing GFP-Sec61β; type: cell-based
Protocol: Fluorescence microscopy. SW620 and U2OS cells were transiently transfected with a plasmid encoding GFP-tagged Sec61β using fuGENE6 (Roche) according to the manufacturer's instructions. Transfected cells plated on poly-L-lysine treated coverslips were treated, washed in PBS, and fixed by incubation in 4% paraformaldehyde in PBS for 10 min. Fixed cells were washed extensively in PBS and nuclei stained by addition of 4′,6-diamidino-2-phenylindole (DAPI) (Thermo Fisher Scientific) for 10 min. Coverslips were mounted using Fluoromount-G (SouthernBiotech) and visualized using a DeltaVision Elite microscope outfitted with a 60× oil immersion objective. Acquired stacks of images of fixed cells were deconvolved and analyzed using SoftWoRx and ImageJ. For time-lapse imaging of live cells, transfected cells were plated on poly-L-lysine treated glass-bottom 4-well imaging chambers (Lab-Tek II; Thermo Fisher Scientific). Imaging was performed using a DeltaVision Elite microscope encased in a chamber that was maintained at 37° C. and was continuously perfused with humidified 5% CO2. Acquired images were analyzed using SoftWoRx and ImageJ.

[2] = biological target: T1, pure human RTN4 protein (Homo sapiens, UniProt Q9NQC3); experiment: Gel-based ABPP competition against IAyne labeling of pure human RTN4 protein; type: binding; conditions: pure human RTN4 protein, gel-based ABPP
T1 construct: purchased Fisher Scientific
T1 sequence (Q9NQC3 1-1192): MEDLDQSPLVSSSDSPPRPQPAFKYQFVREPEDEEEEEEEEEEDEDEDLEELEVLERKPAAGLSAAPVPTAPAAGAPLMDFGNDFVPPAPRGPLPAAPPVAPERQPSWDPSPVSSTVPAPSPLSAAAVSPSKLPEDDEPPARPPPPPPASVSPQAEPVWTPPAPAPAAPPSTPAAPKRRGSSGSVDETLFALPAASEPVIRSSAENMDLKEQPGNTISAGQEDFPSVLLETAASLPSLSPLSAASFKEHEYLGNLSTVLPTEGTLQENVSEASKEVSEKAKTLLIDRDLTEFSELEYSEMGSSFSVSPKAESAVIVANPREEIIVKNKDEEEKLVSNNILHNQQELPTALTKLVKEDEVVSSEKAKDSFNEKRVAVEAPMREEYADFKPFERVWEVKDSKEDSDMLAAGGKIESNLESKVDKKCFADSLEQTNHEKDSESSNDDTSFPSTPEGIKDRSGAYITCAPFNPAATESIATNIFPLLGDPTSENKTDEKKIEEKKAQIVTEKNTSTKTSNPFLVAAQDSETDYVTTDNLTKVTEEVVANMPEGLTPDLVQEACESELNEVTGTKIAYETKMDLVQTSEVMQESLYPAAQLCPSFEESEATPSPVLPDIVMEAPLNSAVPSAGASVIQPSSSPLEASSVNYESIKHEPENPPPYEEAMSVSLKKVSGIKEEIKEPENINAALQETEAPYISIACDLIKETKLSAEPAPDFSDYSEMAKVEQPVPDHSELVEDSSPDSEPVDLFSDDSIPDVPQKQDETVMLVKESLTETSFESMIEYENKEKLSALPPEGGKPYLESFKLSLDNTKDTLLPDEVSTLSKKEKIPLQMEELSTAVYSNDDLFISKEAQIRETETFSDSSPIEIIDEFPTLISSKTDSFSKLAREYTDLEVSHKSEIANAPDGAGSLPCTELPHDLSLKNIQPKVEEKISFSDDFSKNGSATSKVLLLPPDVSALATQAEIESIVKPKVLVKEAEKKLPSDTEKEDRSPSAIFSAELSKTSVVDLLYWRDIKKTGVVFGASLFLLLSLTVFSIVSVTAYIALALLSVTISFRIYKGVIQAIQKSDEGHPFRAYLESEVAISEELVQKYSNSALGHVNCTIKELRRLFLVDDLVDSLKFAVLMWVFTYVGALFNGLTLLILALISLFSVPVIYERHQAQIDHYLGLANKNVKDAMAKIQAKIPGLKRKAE
Protocol: FIGS. 11A-11C. DKM 3-30 and analogs. (FIG. 11A) Structures of DKM 3-30 and analogs. (FIG. 11B) Gel-based ABPP analysis showing competition side-by-side competition studies of DKM 3-30, YP 1-46, and AMR 1-125 against IA-rhodamine labelling of pure human RTN4. Shown are the 50% inhibitory concentration (IC50) values for each compound. (FIG. 11C) Serum-free cell survival of U2OS (48 h) or SW620 (24 h) cells treated with DMSO vehicle or each compound (50 μM). Data in (C) are presented as mean±sem. Significance is expressed as *p<0.001 compared to vehicle-treated controls.
Gel-Based ABPP. Gel-based ABPP methods were performed as previously described^24. Recombinant RTN4 (0.06 μg) protein (RTN4-Fisher Scientific) were pre-treated with DMSO or DKM 3-30, respectively, for 1 h at 37° C. in an incubation volume of 50 μL PBS, and were subsequently treated with IAyne (10 μM final concentration) for 30 min at 37° C. CuAAC was performed to append rhodamine-azide onto IAyne probe-labeled proteins. The samples were separated by SDS/PAGE and scanned using a ChemiDoc MP (Bio-Rad Laboratories, Inc). Inhibition of target labeling was assessed by densitometry using ImageStudio Light software.

[3] = tested on: SW620 colorectal cancer cells; experiment: Cell proliferation of SW620 cells (Hoescht staining); type: cell-based; conditions: 48 h, vs DMSO, average of n = 3/group
Protocol: Cell Culture. SW620 cells were purchased from ATCC. SW620 cells were grown in L-15 media with 10% fetal bovine serum (FBS) in ambient CO2. U2OS cells were grown in DMEM media supplemented with 10% FBS at 37° C. with 5% CO2.
Survival and Proliferation Assays. Cells were plated the evening before the experiment, and allowed to adhere overnight. For serum-free cell survival assays, cells were plated in media not containing FBS. For cell proliferation assays, cells were plated in regular media. For the chemical genetics screen, cells were treated with either DMSO or the cysteine-reactive fragment for 48 h and cell viability was assessed by Hoescht stain using our previously described methods

C=CC(=O)Nc1ccc(Oc2ccc(Cl)cc2)cc1 [DKM 3-30, N-(4-(4-chlorophenoxy)phenyl)acrylamide]
ER morphology in U2OS cells ([1]; DKM 3-30 50 μM (8 hr, 16 hr, time-lapse), AMR 1-125 1 μM, YP 1-46 50 μM): striking loss of nearly all peripheral ER tubules and an increase in ER that exhibited sheet-like morphology
time at which alterations in the ER morphology were evident ([1]; DKM 3-30 50 μM, time-lapse imaging): 0.5-1 hr
displacement of IAyne labelling of RTN4 [2]: validated this hit
activity at 50 µM ([3]; Homo sapiens, SW-620, cysteine-reactive fragment 50 μM, read-out: SW620 proliferation Ave): 54%
SW620 proliferation Ave ([3]; cysteine-reactive fragment 50 μM): significantly impaired

Reference: US20200062696A1, “COMPOSITIONS AND METHODS FOR INHIBITING RETICULON 4” (THE REGENTS OF THE UNIVERSITY OF CALIFORNIA, priority 2017, published 2020)
